Values of other authors, collected in US4276288A, “Dehydrooligopeptides, their production and their medicinal use” (Troponwerke GmbH & Co., KG, priority 1976, dated 1981).
Read-outs that look alike come from different tables or passages of the source.

System: tumour cells

For `O=P1(N(CCCl)CCCl)NCCCO1` (centres unmarked) [cyclophosphamide], the tumour cells destroyed (LD10 dosage) is given as 99.999% and the tumour cells destroyed (one eighth of the LD10 dose) is given as 90%.
